Like-named read-outs stand apart in the source and are kept apart here.
Columns and labels:
[1] = tested on: ARPE19 cells; test: Staining of dead cells and/or living cells: dye content in ARPE19 cells by spectrophotometry; assay type: cell-based, human; details: 15 minutes staining; for Adead (maximum absorbance for dead cells): ARPE19 cells fixed with 70% ethanol 5 minutes; for Aliving (maximum absorbance for living cells): living ARPE19 cells
[2] = tested on: ARPE-19 cells; test: Toxicity: survival of cells after exposure to dyes; assay type: cell-based; details: for Survival of ARPE-19 cells: 0.1% in PBS for 15 minutes at 37° C.
Description: A preferred dye, being either a compound according to the invention or an additional dye as defined above, has a good staining ability for dead cells, a minimal cellular toxicity in the dark, and a minimal cellular toxicity in the strong illumination necessary for surgery.
According to a preferred definition, a low toxicity means that at least 60%, 65%, 70%, 75%, 80%, 85%, 90% or 95% cell viability is retained after incubation in PBS for 15 minutes at 37° C. and 5% CO2, as determined using the methodology of Example 6.

[3] = Staining ability on PVDF filter as ILM model; details: for Ability to stain the ILM (comparative statement): PVDF filter as model for the ILM; for Mean intensity of the grey values of stained filter: 30 s contact, scale 255 is white and 0 is black
Source text: Correlation between staining of the filter and observed staining of the ILM in patients (data from (Rodrigues, Penha et al. 2010)) show a good correlation (see FIG. 1). A 96-well filter (MSBVN1210 MultiScreen BV Filter Plate, Merck-Millipore, Darmstadt, Germany) was used as ILM model. The filter material is hydrophilic polyvinylidene difluoride (PVDF). A Collagen Cell Carrier membrane (CCC) (Viscofan, Weinheim, Germany) was used as model for the ERM. Punches of the membrane (5 mm diameter) were fixed to the filter with a hypodermic needle and soaked in PBS for 30 minutes. The PBS was removed by vacuum filtration, and 50 μL of the dye solution was pipetted into the filter well. After 30 s, the dye was removed by vacuum filtration, and membrane and filter were washed three times with PBS. The membrane was removed and put into a 96-well plate for spectrum recording, using a Tecan Spark 20M (Tecan Group Ltd., Männedorf, Switzerland) plate reader. The filter staining of the compounds (6) and (8) according to the invention are shown in FIG. 2 in comparison to that of BBG. […] The intensity of the grey values was measured. For BBG the mean intensity was 201, for compound (6) it was 175, for compound (8) it was 197. On the scale used, 255 is white and 0 is black.

[4] = tested on: ARPE-19 cells; test: Three-step staining (dye, calcein-AM, propidium iodide) with microphotographs; assay type: cell-based, human; details: 0.025% in PBS, room temperature, 15 minutes; 20% ethanol 5 minutes to induce death in some cells; FIG. 3
Description: An experiment was carried out with ARPE-19 cells and staining with compound (6).
A three-step staining procedure was used: first the dye was introduced, then calcein-acetoxymethyl ester (calcein-AM), then propidium iodide (PI). Calcein-AM (which is non-fluorescent) is able to penetrate cell membranes and is hydrolyzed by intracellular esterases to calcein, which is fluorescent and which cannot escape through the intact cell membrane. Cells fluorescent for calcein-AM are therefore intact and living cells. Dead cells (cells with a compromised cell membrane) might still hydrolyze calcein-AM, but they are not able to retain the calcein. Cells with compromised cell membranes can take up propidium iodide, a dye which intercalates into DNA and turns fluorescent upon binding.
Cells were grown in 48-well plates. Growth medium was removed and a solution of 20% ethanol was added for 5 minutes in order to induce cell death in some cells. The ethanol solutions were removed. Staining with compound (6) (0.025%) in PBS was carried out at room temperature for 15 minutes. The dye was washed off with PBS. The cells were then exposed to calcein-acetoxymethyl ester (calcein-AM) in PBS for 15 minutes at room temperature. […]

[5] = dye 0.1% w/v in PBS, <0.07 = does not stain
[6] = concentration of the dye 0.025%

Acid Violet
Adead (maximum absorbance for dead cells) ([1]; dye 0.1% w/v in PBS): 0.2077
Aliving (maximum absorbance for living cells) [1, 5]: 0.0184

CC1=CC(=[N+](C)Cc2cccc(S(=O)(=O)[O-])c2)C=CC1=C(c1ccc(Nc2ccc(OCc3ccccc3)cc2)cc1)c1ccc(N(C)Cc2cccc(S(=O)(=O)O)c2)cc1C [(2)]
Adead (maximum absorbance for dead cells) ([1]; dye 0.1% w/v in PBS): 0.2454
Aliving (maximum absorbance for living cells) [1, 5]: 0.0253

CCCOc1ccc(Nc2ccc(C(=C3C=CC(=[N+](CC)Cc4cccc(S(=O)(=O)[O-])c4)C=C3C)c3ccc(N(CC)Cc4cccc(S(=O)(=O)O)c4)cc3C)cc2)cc1 [(4)]
Adead (maximum absorbance for dead cells) ([1]; dye 0.1% w/v in PBS): 0.8084
Aliving (maximum absorbance for living cells) [1, 5]: 0.0485

Methyl Violet
Adead (maximum absorbance for dead cells) ([1]; dye 0.1% w/v in PBS): 0.8900

CCN(Cc1cccc(S(=O)(=O)O)c1)c1ccc(C(=C2C=CC(=[N+](CC)Cc3cccc(S(=O)(=O)[O-])c3)C=C2C)c2ccc(Nc3ccc(OC(C)C)cc3)cc2)c(C)c1 [(3)]
Adead (maximum absorbance for dead cells) ([1]; dye 0.1% w/v in PBS): 0.6387
Aliving (maximum absorbance for living cells) [1, 5]: 0.0440

CN(C)c1ccc(C(=C2C=CC(=[N+](C)C)C=C2)c2ccccc2)cc1 [Malachite Green]
Adead (maximum absorbance for dead cells) ([1]; dye 0.1% w/v in PBS): 0.0068
Aliving (maximum absorbance for living cells) [1, 5]: 0.0058

CCCCN(c1ccc(OCC)cc1)c1ccc(C(=C2C=CC(=[N+](CC)Cc3cccc(S(=O)(=O)[O-])c3)C=C2C)c2ccc(N(CC)Cc3cccc(S(=O)(=O)O)c3)cc2C)cc1 [BBBG]
Adead (maximum absorbance for dead cells) ([1]; dye 0.1% w/v in PBS): 0.7941
Aliving (maximum absorbance for living cells) [1, 5]: 0.1491
Survival ([2]; dye concentration 0.005%): 67%

CCN(Cc1cccc(S(=O)(=O)O)c1)c1ccc(C(=C2C=CC(=[N+](CC)Cc3cccc(S(=O)(=O)O)c3)C=C2)c2ccc(S(=O)(=O)O)cc2)cc1.[Na+].[Na+] [Light Green SF]
Adead (maximum absorbance for dead cells) ([1]; dye 0.1% w/v in PBS): 0.0080
Aliving (maximum absorbance for living cells) [1, 5]: 0.0065

CN(C)c1ccc(C(=C2C=CC(=[N+](C)C)C=C2)c2ccc([N+](C)(C)C)cc2)cc1.[Cl-].[Cl-] [Methyl Green]
Adead (maximum absorbance for dead cells) ([1]; dye 0.1% w/v in PBS): 0.0750
Aliving (maximum absorbance for living cells) [1, 5]: 0.0489

CCN(Cc1cccc(S(=O)(=O)O)c1)c1ccc(C(=C2C=CC(=[N+](CC)Cc3cccc(S(=O)(=O)[O-])c3)C=C2C)c2ccc(Nc3ccc(Nc4ccccc4)cc3)cc2)c(C)c1 [(8)]
Adead (maximum absorbance for dead cells) ([1]; dye 0.1% w/v in PBS): 0.8411
Aliving (maximum absorbance for living cells) [1, 5]: 0.0629
Ability to stain the ILM (comparative statement) [3]: increased ability to stain the ILM compared to compound (6)
Mean intensity of the grey values of stained filter ([3]; dye 0.005%): 197
Filter staining in comparison to BBG and compound (6) ([3]; dye at 0.005%, comparators at 0.025%, FIG. 2): even stronger staining
Survival of ARPE-19 cells [2]: 79%
Survival ([2]; dye concentration 0.025%): 79%

CCN(CC)c1ccc(C(=C2C=CC(=[N+](CC)CC)C=C2)c2ccccc2)cc1 [Brilliant Green]
Adead (maximum absorbance for dead cells) ([1]; dye 0.1% w/v in PBS): 0.0568
Aliving (maximum absorbance for living cells) [1, 5]: 0.1088

CCOc1ccc(Nc2ccc(/C(=C3C=C/C(=[N+](/CC)Cc4cccc(S(=O)(=O)[O-])c4)C=C/3C)c3ccc(N(CC)Cc4cccc(S(=O)(=O)[O-])c4)cc3C)cc2)cc1.[Na+] [BBG, Brilliant Blue G]
Adead (maximum absorbance for dead cells) ([1]; dye 0.1% w/v in PBS): 0.5651
Aliving (maximum absorbance for living cells) [1, 5]: 0.0328
Mean intensity of the grey values of stained filter ([3]; dye 0.025%): 201
Survival [2]: 99%

CCCN(c1ccc(OCC)cc1)c1ccc(C(=C2C=CC(=[N+](CC)Cc3cccc(S(=O)(=O)[O-])c3)C=C2C)c2ccc(N(CC)Cc3cccc(S(=O)(=O)O)c3)cc2C)cc1 [PBBG]
Adead (maximum absorbance for dead cells) ([1]; dye 0.1% w/v in PBS): 0.7369
Aliving (maximum absorbance for living cells) [1, 5]: 0.1331
Survival ([2]; dye concentration 0.005%): 66%

CCN(Cc1cccc(S(=O)(=O)O)c1)c1ccc(C(=C2C=CC(=[N+](CC)Cc3cccc(S(=O)(=O)[O-])c3)C=C2C)c2ccc(Nc3ccc(OC)cc3)cc2)c(C)c1 [Compound (6)]
Adead (maximum absorbance for dead cells) [1, 6]: 0.3630
Adead (maximum absorbance for dead cells) ([1]; dye 0.1% w/v in PBS): 0.8755
Aliving (maximum absorbance for living cells) [1, 6]: 0.0635
Aliving (maximum absorbance for living cells) [1, 5]: 0.0603
Staining of living cells (microscopy) [4]: does not stain living cells
Ability to stain the ILM (comparative statement) [3]: increased ability to stain the ILM compared to BBG
Mean intensity of the grey values of stained filter ([3]; dye 0.025%): 175
Filter staining in comparison to BBG ([3]; equal concentrations of 0.025%, FIG. 2): Much stronger staining
Survival of ARPE-19 cells [2]: 103%
Survival ([2]; dye concentration 0.025%): 103%

Patent Blue 1
Adead (maximum absorbance for dead cells) ([1]; dye 0.1% w/v in PBS): 0.0113
Aliving (maximum absorbance for living cells) [1, 5]: 0.0155

CCN(Cc1cccc(S(=O)(=O)O)c1)c1ccc(C(=C2C=CC(=[N+](CC)Cc3cccc(S(=O)(=O)[O-])c3)C=C2C)c2ccc(Nc3ccc(Oc4ccccc4)cc3)cc2)c(C)c1 [(7)]
Adead (maximum absorbance for dead cells) [1, 6]: 0.1976
Aliving (maximum absorbance for living cells) [1, 6]: 0.0216
Survival of ARPE-19 cells [2]: 81%
Survival ([2]; dye concentration 0.025%): 81%

CC1=CC(=[N+](C)Cc2cccc(S(=O)(=O)[O-])c2)C=CC1=C(c1ccc(Nc2ccc(OC(C)C)cc2)cc1)c1ccc(N(C)Cc2cccc(S(=O)(=O)O)c2)cc1C [(1)]
Adead (maximum absorbance for dead cells) ([1]; dye 0.1% w/v in PBS): 0.3481
Aliving (maximum absorbance for living cells) [1, 5]: 0.0283

CCOc1ccc(N(C)c2ccc(C(=C3C=CC(=[N+](CC)Cc4cccc(S(=O)(=O)[O-])c4)C=C3C)c3ccc(N(CC)Cc4cccc(S(=O)(=O)O)c4)cc3C)cc2)cc1 [MBBG]
Adead (maximum absorbance for dead cells) ([1]; dye 0.1% w/v in PBS): 0.6876
Aliving (maximum absorbance for living cells) [1, 5]: 0.0355

O=C1OC2(c3ccccc31)c1cc(Br)c(O)c(Br)c1Oc1c2cc(Br)c(O)c1Br [Eosin]
Adead (maximum absorbance for dead cells) ([1]; dye 0.1% w/v in PBS): 0.2358
Aliving (maximum absorbance for living cells) [1, 5]: 0.0362

O=S1(=O)OC(c2cc(Br)c(O)c(Br)c2)(c2cc(Br)c(O)c(Br)c2)c2ccccc21 [Bromophenol Blue]
Adead (maximum absorbance for dead cells) ([1]; dye 0.1% w/v in PBS): 0.0357
Aliving (maximum absorbance for living cells) [1, 5]: 0.0059

CN(C)c1ccc(C(=C2C=CC(=[N+](C)C)C=C2)c2ccc(N(C)C)cc2)cc1 [Crystal Violet]
Adead (maximum absorbance for dead cells) ([1]; dye 0.1% w/v in PBS): 0.4365

CCOc1ccc(N(CC)c2ccc(C(=C3C=CC(=[N+](CC)Cc4cccc(S(=O)(=O)[O-])c4)C=C3C)c3ccc(N(CC)Cc4cccc(S(=O)(=O)O)c4)cc3C)cc2)cc1 [EBBG]
Adead (maximum absorbance for dead cells) ([1]; dye 0.1% w/v in PBS): 0.9066
Aliving (maximum absorbance for living cells) [1, 5]: 0.0724
Survival ([2]; dye concentration 0.025%): 93%

Cc1cc(-c2ccc(/N=N/c3c(S(=O)(=O)O)cc4cc(S(=O)(=O)O)cc(N)c4c3O)c(C)c2)ccc1/N=N/c1c(S(=O)(=O)O)cc2cc(S(=O)(=O)O)cc(N)c2c1O [Trypan Blue]
Adead (maximum absorbance for dead cells) ([1]; dye 0.1% w/v in PBS): 0.0847
Aliving (maximum absorbance for living cells) [1, 5]: 0.0135

Aniline Blue
Adead (maximum absorbance for dead cells) ([1]; dye 0.1% w/v in PBS): 0.0057
Aliving (maximum absorbance for living cells) [1, 5]: 0.0080

CCN(Cc1cccc(S(=O)(=O)O)c1)c1ccc(C(=C2C=CC(=[N+](CC)Cc3cccc(S(=O)(=O)[O-])c3)C=C2C)c2ccc(Nc3ccc(OCc4ccccc4)cc3)cc2)c(C)c1 [(5)]
Adead (maximum absorbance for dead cells) ([1]; dye 0.1% w/v in PBS): 0.6734
Aliving (maximum absorbance for living cells) [1, 5]: 0.0327
Survival of ARPE-19 cells [2]: 81%
Survival ([2]; dye concentration 0.025%): 81%

CC1(C)C(/C=C/C=C/C=C/C=C2\N(CCCCS(=O)(=O)O)c3ccc4ccccc4c3C2(C)C)=[N+](CCCCS(=O)(=O)[O-])c2ccc3ccccc3c21 [ICG, indocyanine green]
Adead (maximum absorbance for dead cells) ([1]; dye 0.1% w/v in PBS): 1.1751
Aliving (maximum absorbance for living cells) [1, 5]: 0.0703
